These results are taken from patent publication US9545119B2, “Specific vanillyl lignans and use thereof as taste improvers” (SYMRISE AG, priority 2011, dated 2017).

Marks after values point to notes of the source that are not given here.

What all share (format): in vivo
Assay [1] relates to caffeine solution containing 500 ppm. Description: Bitterness reduction in a bitter substance solution (expert panel), caffeine. As to conditions: for Reduction in the bitterness impression: * = significant; for Bitterness impression (on scale of 1-10) b) with test substance: 25 ppm test substance + 500 ppm caffeine, scale 1 (not bitter) to 10 (extremely bitter), panel mean; for Effect on bitterness (in words): statement in the description referring to Example 1. An excerpt:
(§1) In order to quantify a reduction in the bitterness impression in a sample, the bitterness of a caffeine solution containing 500 ppm was compared by a panel of experts, in each case with a sample containing 500 ppm caffeine and also the respectively given quantity of a substance to be assessed (with regard to the ability thereof to reduce bitterness), with assessment on a scale from 1 (not bitter) to 10 (extremely bitter). For the evaluation, i.e. the calculation of the reduction (in %) of the bitterness impression, in each case, the mean values of the estimates by the expert panel for the caffeine solution and the sample to be compared, which contained caffeine and a substance under assessment were used. In addition to caffeine, other bitter substances such as theobromine, naringin, quinine hydrochloride dihydrate and salicin were tested using the same method.

The test system of assay [2] is 300 ppm theobromine. Description: Bitterness reduction in a bitter substance solution (expert panel), theobromine. As to conditions: for Reduction in the bitterness impression: 25 ppm test substance + 300 ppm theobromine vs theobromine alone; for Bitterness impression (on scale of 1-10) b) with test substance: 25 ppm test substance + 300 ppm theobromine, scale 1-10.
From the text: as §1

Assay [3] deals with 100 ppm naringin. Kind of assay: Bitterness reduction in a bitter substance solution (expert panel), naringin. As to conditions: for Reduction in the bitterness impression: 25 ppm test substance + 100 ppm naringin vs naringin alone, * = significant; for Bitterness impression (on scale of 1-10) b) with test substance: 25 ppm test substance + 100 ppm naringin, scale 1-10.
From the text: as §1

Assay [4] concerns 250 ppm salicin. Kind of assay: Bitterness reduction in a bitter substance solution (expert panel), salicin.
From the text: as §1

For assay [5], the system named is 5 ppm quinine hydrochloride dihydrate. Kind of assay: Bitterness reduction in a bitter substance solution (expert panel), quinine hydrochloride dihydrate.
From the text: as §1

For assay [6], the system named is 750 ppm epigallocatechin gallate (EGCG). Description: Bitterness and astringency reduction in a bitter substance solution over time (expert panel). As to conditions: 100 ppm test substance + 750 ppm EGCG. An excerpt: In order to quantify the reduction in the bitterness or astringency impression in a sample over a particular period of time, the bitterness or astringency of a solution containing 750 ppm epigallocatechin gallate (EGCG) was compared by a panel of experts, in each case with a sample containing 750 ppm epigallocatechin gallate and also the respectively shown quantity of a substance to be assessed (with regard to the ability thereof to reduce bitterness and/or astringency), in this case matairesinol (Compound 1-(−)).
Assessment was carried out on a scale from 1 (not bitter) to 10 (extremely bitter) or 1 (not astringent) to 10 (extremely astringent). The assessment by the panelists was carried out at specified time points (10 seconds, 30 seconds, 50 seconds and 70 seconds after ingestion of the respective sample). The samples were assessed by the panellists one after another following neutralisation. For the evaluation, i.e. the calculation of the reduction (in %) of the bitterness impression or astringency impression, at each time point, the mean values of the estimates by the expert panel for the epigallocatechin gallate solution and the sample to be compared therewith which contained the epigallocatechin gallate and the substance under assessment (in this case: matairesinol (Compound 1-(−)) were used.

Assay [7] shares this test system. The description is as above. As to conditions: 100 ppm test substance + 750 ppm EGCG; time 0 s.
Where [8] appears, read: 25 ppm test substance + 500 ppm caffeine vs 500 ppm caffeine alone.

Turning to `COc1cc(C2c3cc(O)c(OC)cc3CC(CO)C2CO)ccc1O` (single isomer, unassigned; (+)) [(+)-isolariciresinol (5-(+)), 1,2,3,4-tetrahydro-7-hydroxy-1-(4-hydroxy-3-methoxy-phenyl)-6-methoxy-2,3-naphthalenedimethanol], the “Reduction in the bitterness impression” value in assay [1] (setting [8]) is reported as 10.3%. In assay [1], the “Bitterness impression (on scale of 1-10) b) with test substance” value (“Bitterness impression … with test substance” for short) came to 4.1 ± 2.21.
As for `COc1cc(C[C@H]2CO[C@H](c3ccc(O)c(OC)c3)[C@H]2CO)ccc1O` [(+)-lariciresinol (3-(+)), 4-[[(3R,4R,5S)-5-(4-hydroxy-3-methoxyphenyl)-4-(hydroxy-methyl)-oxolan-3-yl]methyl]-2-methoxyphenol], the “Reduction in the bitterness impression” value in assay [1] (setting [8]) is given as 38.6%*; in assay [2] it was 10.7%; in assay [3] it was 39.5%*; in assay [4] (25 ppm test substance + 250 ppm salicin vs salicin alone) it was 17.1%; in assay [5] (25 ppm test substance + 5 ppm quinine hydrochloride dihydrate vs quinine alone, * = significant), 30.9%*. Besides, the “Bitterness impression … with test substance” value was 2.9 ± 1.41 in assay [1]; 3.7 ± 2.24 in assay [2]; 3.6 ± 1.75 in assay [3]; 5.7 ± 2.97 in assay [4] (25 ppm test substance + 250 ppm salicin, scale 1-10); 2.5 ± 1.02 in assay [5] (25 ppm test substance + 5 ppm quinine hydrochloride dihydrate, scale 1-10).
As for `COc1cc(C[C@H]2C(=O)OC[C@@H]2Cc2ccc(OC)c(OC)c2)ccc1O` [(−)-arctigenin (4), (3R,4R)-4-[(3,4-dimethoxyphenyl)methyl]-3-[(4-hydroxy-3-methoxy-phenyl)methyl]oxolan-2-one], the “Reduction in the bitterness impression” value in assay [1] (setting [8]) came out at 11.5%. The “Bitterness impression … with test substance” value in assay [1] worked out at 2.8 ± 1.68.
Regarding `COc1cc(C[C@H]2C(=O)OC[C@@H]2[C@H](O)c2ccc(O)c(OC)c2)ccc1O` [(−)-hydroxymatairesinol(2-(−)), (3R,4R)-4-[(S)-hydroxy-(4-hydroxy-3-methoxy-phenyl)methyl]-3-[(4-hydroxy-3-methoxyphenyl)methyl]oxolan-2-one], in assay [1] (setting [8]), the “Reduction in the bitterness impression” value was found to be 41.9%*. The “Bitterness impression … with test substance” value in assay [1] turned out to be 2.6 ± 1.72.
Turning to `COc1cc(C[C@H]2COC(=O)[C@@H]2Cc2ccc(O)c(OC)c2)ccc1O` [(−)-matairesinol (1-(−)), (3R,4R)-3,4-bis[(4-hydroxy-3-methoxyphenyl)methyl]oxolan-2-one], the “Reduction in the bitterness impression” value turned out to be 35.5%* in assay [1] (setting [8]), 24.7% in assay [2] and 15.1% in assay [3]. In addition, the “Bitterness impression … with test substance” value in assay [1] worked out at 2.7 ± 1.77; in assay [2], 3.4 ± 1.49; in assay [3], 4.9 ± 2.38. In addition, the “% Reduction in the astringency impression” value in assay [6] (time 10 s) is given as −10%*; in assay [6] (time 30 s), −15%; in assay [6] (time 50 s), −20%; in assay [6] (time 70 s), −23%; in assay [7], −11%. The “% reduction in the bitterness impression” value in assay [6] (time 10 s) is reported as −30%*; in assay [6] (time 30 s), −38%*; in assay [6] (time 50 s), −33%*; in assay [6] (time 70 s), −28%; in assay [7], −15%.
`COc1cc([C@@H]2c3cc(O)c(OC)cc3C[C@H]3C(=O)OC[C@@H]23)ccc1O` [(−)-α-conidendrin (6-(−)), (3aR,9R,9aS)-7-hydroxy-9-(4-hydroxy-3-methoxyphenyl)-6-methoxy-3a,4,9,9a-tetrahydro-1H-benzo[f][2]benzofuran-3-one]: the “Reduction in the bitterness impression” value in assay [1] (setting [8]) is given as 20.8%. Further, in assay [1], the “Bitterness impression … with test substance” value is reported as 2.5 ± 0.94.
As to `COc1cc(C[C@@H](CO)[C@H](CO)Cc2ccc(O)c(OC)c2)ccc1O` [secoisolariciresinol, reference compound], the “Amplification of the bitterness impression (printed in column Reduction in the bitterness impression)” value in assay [1] (25 ppm test substance + 500 ppm caffeine vs 500 ppm caffeine alone, comparative example) was found to be 34%. Moreover, in assay [1], the “Bitterness impression … with test substance” value is reported as 5.2 ± 2.6 and the “Effect on bitterness (in words)” value is reported as “amplifies the bitterness”. Further, the “Effect on bitterness (in words)” value in assay [1] (listed as Secoisolariciresinol) is listed as “capable of amplifying bitter taste impressions”.
